Laboratory results from US20070053883A1, “Neuronal cell lineages and methods of production thereof” (THE JOHNS HOPKINS UNIVERSITY, priority 2003, published 2007).
“Also recorded” adds a separate entry of the source.

How the values were obtained:
Hh pathway [1] = assay: Shh signaling assay in NIH3T3 Shh-LIGHT Z3 cells (Gli luciferase reporter); format: cell-based
Procedure: (§1) Shh signaling assays. Shh signaling assays were carried out as described^16 in primary fibroblasts lacking functional Dhcr7, Sc5d or Ptch and in NIH3T3 fibroblasts. Dhcr7^−/− and Dhcr7^+/− MEFs were generated from embryonic day-9 mutant mice and Sc5h1 and Sc5d^−/− and Sc5d^+/− MEFs from embryonic day-14.5 mutant mice. We generated a reporter construct with firefly luciferase and Gli (pGL3-8xGli-luciferase) by cloning eight tandem Gli-binding sites and a lens crystallin promoter from the 8xGli-BS Luc construct^22 into the pGL3-Basic vector (Promega). We determined relative Hh pathway activity in Dhcr7^−/−, Dhcr7^+/−, Sc5d^+/+ and Sc5d^+/− MEFs from the expression of transiently transfected pGL3-8xGli-luciferase and control Renilla luciferase (pRL-SV40; Promega) vectors. In Ptch^−/− MEFs, we normalized β-galactosidase activity expressed under the control of the Ptch promoter for protein levels to determine relative Hh pathway activity. In the NIH3T3 cell clone Shh-LIGHT Z3, we normalized 8xGli-BS luciferase activity for β-galactosidase activity from stably transfected vectors (8xGli-BS Luc^22 and piZ-lacZ). We established clonal sublines of Shh-LIGHT Z3 by cotransfecting either Smo tagged with Myc epitope or SmoA1 with vector encoding G418 resistance (pGT; Invivogen). All transfections were done with Fugene 6. We carried out cyclodextrin treatments for 30 min with methyl-β-cyclodextrin (Sigma) dissolved in Dulbecco's modified Eagle medium, preceded and followed by two washes with phosphate-buffered saline. Fetal bovine serum was depleted of lipids as described^23. We purchased compactin as an active sodium salt form of mevastatin (Biomol) and dissolved it in dimethylsulfoxide.
(§2) The combination of transient cyclodextrin treatment followed by inhibition of cholesterol synthesis blocked the response to ShhNp, whereas neither treatment alone did so. FIG. 4c, Hh path way inhibition persisted for 72 h after cyclodextrin treatment. The 3-d recovery period was intended to allow replenishment of non-sterol cellular components depleted by transient cyclodextrin treatment while maintaining sterol depletion with HMG-CoA reductase inhibition by compactin. FIG. 4d, Total cellular sterols from parallel cultures of NIH3T3 (c, 36 h), Dhcr7^−/− and Sc5d^−/− (FIG. 3b) MEFs were determined by gas chromatography-mass spectrometry analysis of extracted lipids and plotted against the relative Shh pathway activity. Bars represent one standard error (quadruplicate wells).

Hh pathway [2] = assay: Response of cells to ShhNp protein under sterol-specific perturbations (data not shown); format: cell-based
Text: Cyclodextrins form complexes with hydrophobic compounds including proteins and phospholipids in addition to sterols^6.

Smo = biological target: T1, Smo (Mus musculus, UniProt P56726); assay: Shh pathway activation by overexpression of wild-type Smo in NIH3T3 cells; format: cell-based; conditions: cholesterol depletion by cyclodextrin and compactin treatments
T1 construct: expressed in transfected cells
T1 sequence (P56726 33-793): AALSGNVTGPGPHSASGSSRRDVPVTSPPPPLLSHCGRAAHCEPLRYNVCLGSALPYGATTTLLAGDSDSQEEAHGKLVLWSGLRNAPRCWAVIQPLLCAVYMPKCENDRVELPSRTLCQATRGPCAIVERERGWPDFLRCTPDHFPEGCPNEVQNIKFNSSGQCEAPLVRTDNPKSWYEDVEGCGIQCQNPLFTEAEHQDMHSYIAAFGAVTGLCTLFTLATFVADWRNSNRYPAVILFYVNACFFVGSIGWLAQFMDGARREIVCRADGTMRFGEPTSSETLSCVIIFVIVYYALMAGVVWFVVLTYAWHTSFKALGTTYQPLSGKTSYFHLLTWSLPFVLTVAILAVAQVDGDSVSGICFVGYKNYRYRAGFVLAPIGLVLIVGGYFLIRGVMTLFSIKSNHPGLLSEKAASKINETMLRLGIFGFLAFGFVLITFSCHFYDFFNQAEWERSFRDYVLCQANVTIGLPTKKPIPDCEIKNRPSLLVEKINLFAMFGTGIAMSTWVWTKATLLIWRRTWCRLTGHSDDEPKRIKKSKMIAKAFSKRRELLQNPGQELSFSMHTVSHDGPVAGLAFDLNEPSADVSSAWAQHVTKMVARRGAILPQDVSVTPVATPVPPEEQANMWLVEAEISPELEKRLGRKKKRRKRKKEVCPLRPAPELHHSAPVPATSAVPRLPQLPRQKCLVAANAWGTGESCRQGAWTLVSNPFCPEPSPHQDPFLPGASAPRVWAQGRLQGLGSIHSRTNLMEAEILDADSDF
Procedure: as §1, with “We carried out cyclodextrin treatments for 30 min with methyl-β-cyclodextrin (Sigma) dissolved in Dulbecco's modified Eagle medium, preceded and followed by two washes with phosphate-buffered saline. Fetal bovine serum was depleted of lipids as described^23. We purchased compactin as an active sodium salt form of mevastatin (Biomol) and dissolved it in dimethylsulfoxide.” left out

[3] = test system: Hh pathway downstream of Ptch; assay: Constitutive Hh pathway activity in Ptch−/− MEFs (β-galactosidase); format: cell-based, mouse; conditions: transient treatment with increasing concentrations of cyclodextrin in combination with compactin
Procedure: as §1, with “We carried out cyclodextrin treatments for 30 min with methyl-β-cyclodextrin (Sigma) dissolved in Dulbecco's modified Eagle medium, preceded and followed by two washes with phosphate-buffered saline. Fetal bovine serum was depleted of lipids as described^23. We purchased compactin as an active sodium salt form of mevastatin (Biomol) and dissolved it in dimethylsulfoxide.” left out

SmoA1 = biological target: T2, SmoA1 (Mus musculus, UniProt P56726, W539L); assay: Shh pathway activity driven by oncogenic Smo (SmoA1, W539L) in NIH3T3 cells; format: cell-based; conditions: cholesterol depletion by cyclodextrin and compactin treatments
T2 construct: expressed in transfected cells
T2 sequence (P56726 33-793 W539L): as the sequence (P56726 33-793) above, with W507L counted along it
Procedure: as §1, with “We carried out cyclodextrin treatments for 30 min with methyl-β-cyclodextrin (Sigma) dissolved in Dulbecco's modified Eagle medium, preceded and followed by two washes with phosphate-buffered saline. Fetal bovine serum was depleted of lipids as described^23. We purchased compactin as an active sodium salt form of mevastatin (Biomol) and dissolved it in dimethylsulfoxide.” left out

[4] = test system: chick neural-plate explants; assay: Chick neural-plate explants induced with ShhN, stained for HNF3β or lSL1; format: cell-based
Procedure: (§3) Chick embryos. Methyl-β-cyclodextrin (200 μl of a 10% w/v solution in L-15 medium (Sigma and Life Technologies)) was applied to windowed, fertile chick eggs (White Leghorn) after 15 h of incubation. For an average egg volume of 50 ml, the final concentration of cyclodextrin was 375 μM. After 4 d of further incubation, we processed the embryos for scanning electron microscopy. The neural plate and epidermal ectoderm was dissected from stage 9-10 chick embryos, cultured them in collagen and induced them with purified Sonic Hh N-terminal peptide ShbN^21 as described^3. Methyl-β-cyclodextrin was added to the chick explant cultures 4 h after induction with ShhN was initiated.
It was further investigated whether SSH signaling in embryonic tissues by exposing chick neural-plate explants to recombinant Shh protein (ShhN, 30 nm) in the presence of cyclodextrin (FIG. 2b). FIG. 2b provides confocal microscope images of stage 9-10 chick embryo ectoderm dissected from a region of the neural plate intermediate to the notochord and roof plate and just rostral to Hensen's node. Explants were cultured for 48 h in collagen and stained for HNF3β or lSL1, as indicated.

neural-crest cells = assay: BMP-induced migration of neural-crest cells from dorsal neural plate explants; format: cell-based, chick; conditions: 400 μM cyclodextrin alone, 48 h of culture
Procedure: as §3
Dorsal neural plate progenitor cells and an endogenous source of BMP, the adjacent epidermal ectoderm, were dissected from a region just rostral to Hensen's node in stage 9-10 chick embryos.

[5] = test system: Dhcr7−/− and Sc5d−/− MEFs; assay: Sterol analysis of MEFs cultured in parallel with signaling assays; format: cell-based, mouse; conditions: lipid-depleted serum
Procedure: Sterol analysis. Neutral sterols were extracted and analyzed as described^24 from replicate wells of MEFs cultured in parallel with those used for signaling assays.
as §2

chick embryos = assay: Cyclodextrin treatment of chick embryos in ovo, facial features by scanning electron microscopy; format: in vivo; conditions: 375 μM cyclodextrin in ovo, applied after 15 h of incubation, early-primitive-streak stage, embryonic day 5
Procedure: as §3
To determine how cholesterol may affect Hh signaling in embryonic development, chick embryos were exposed to cyclodextrin, a cyclic oligosaccharide that forms non-covalent complexes with sterols and can be used to extract and deplete cholesterol from living cells. […] The most severely affected embryos developed a proboscis-like structure that phenocopies the nasal rudiments of mouse embryos that are homozygous with respect to mutations in the gene Sonic hedgehog (Shh; ref. 8).
FIG. 2a provides scanning electron micrographs of facial features at embryonic day 5 of a control (control) chick embryo and of embryos exposed to 375 μM cyclodextrin (CD). […]

Shh autoprocessing = assay: Analysis of Shh protein biogenesis (autoprocessing) in MEFs; format: cell-based, mouse; conditions: Dhcr7−/− or Sc5d−/− MEFs; transient (30 min, 3.8 mM) cyclodextrin treatment, lipid-depleted serum
Procedure: Analysis of Shh protein biogenesis. MEFs were plated in a 10-cm^2 dish (Falcon) and transfected them (Fugene 6, Roche) with a full length Shh expression construct (pRK5-Shh, 5 μg) when the cells were roughly 75% confluent. The next day, we changed the culture medium (Dulbecco's modified Eagle medium with 10% fetal bovine serum) to contain either 0.5% fetal bovine serum, 0.5% lipid-depleted serum or lipid-depleted serum after a 30-min treatment with 3.8 mM methyl-β-cyclodextrin (Sigma). After an additional 24 h in culture, we lysed the MEFs in RIPA buffer (50 mM Tris-C1, pH 7.5, 150 mM NaCl, 1% Nonidet P-40, 0.5% sodium deoxycholate, 1 mM EDTA, 1 μg ml^−1 leupeptin, 1 μg ml aprotinin^−1, 0.2 mM phenylmethylsulfonyl fluoride), immunoprecipitated Shh protein from the cell lysates with a monoclonal antibody that recognizes the N-terminal signaling domain (5E1, Developmental Studies Hybridoma Bank) and immunoblotted them with a polyclonal antibody preparation (JH134). […]

Hh pathway [6] = assay: Shh signaling assay in Dhcr7 and Sc5d MEFs (Hh-responsive firefly luciferase reporter); format: cell-based, mouse
Procedure: Shh signaling assays. Shh signaling assays were carried out as described^16 in primary fibroblasts lacking functional Dhcr7, Sc5d or Ptch and in NIH3T3 fibroblasts. Dhcr7^−/− and Dhcr7^+/− MEFs were generated from embryonic day-9 mutant mice and Sc5h1 and Sc5d^−/− and Sc5d^+/− MEFs from embryonic day-14.5 mutant mice. We generated a reporter construct with firefly luciferase and Gli (pGL3-8xGli-luciferase) by cloning eight tandem Gli-binding sites and a lens crystallin promoter from the 8xGli-BS Luc construct^22 into the pGL3-Basic vector (Promega). We determined relative Hh pathway activity in Dhcr7^−/−, Dhcr7^+/−, Sc5d^+/+ and Sc5d^+/− MEFs from the expression of transiently transfected pGL3-8xGli-luciferase and control Renilla luciferase (pRL-SV40; Promega) vectors. […]
The effect of cholesterol depletion on responsiveness of Dhcr7^+/− (gray bars), Dhcr7^−/− (maroon bars), Sc5d^+/− (gray bars), and Sc5d^−/− (green bars) MEFs to Shh signaling was assayed by transfection with a Hh-responsive firefly luciferase reporter and treatment with purified ShhNp (10 nM). […] For each culture condition, normalized firefly luciferase activity from control and ShhNp treated cells was used to calculate the relative induction, expressed as a percentage of the Shh induction achieved in MEFs cultured in full serum. […]

[7] = 400 μM cyclodextrin, 30 nM ShhN, 48 h

Molecule: CC[C@H](C)C(=O)O[C@H]1CCC=C2C=C[C@H](C)[C@H](CC[C@@H]3C[C@@H](O)CC(=O)O3)[C@H]21 [compactin]
- ShhNp response under compactin alone (Hh pathway [1]; continuous exposure to compactin): not affected

Molecule: CCCCC[C@@H](O)[C@H]1C(=O)O[C@H](C)[C@@H](O)/C=C/C=C/C=C/C=C/C=C(\C)[C@@H](O)C[C@H](O)C[C@H](O)C[C@H](O)C[C@H](O)C[C@H](O)C[C@@H]1O [filipin]
- response of cells to ShhNp protein (Hh pathway [2]): blocked

Molecule: C[C@@H]1[C@H](O)[C@@H](C)/C=C/C=C/CC/C=C/C=C/C=C/C=C/C(O[C@H]2O[C@H](C)[C@@H](O)[C@H](N)[C@@H]2O)CC2O[C@](O)(CC(O)C(O)CCC(O)CC(O)CC(O)CC(=O)O[C@H]1C)CC(O)C2C(=O)O (stereo partly shown) [nystatin]
- response of cells to ShhNp protein (Hh pathway [2]): blocked

Molecule: Methyl-β-cyclodextrin
- Shh pathway activation by overexpressed wild-type Smo (Smo): inhibited
- constitutive Hh pathway activity in Ptch−/− fibroblasts [3]: dose-dependent reduction
- constitutive Hh pathway activity in Ptch−/− fibroblasts ([3]; listed as Cyclodextrin): blocked
- Shh pathway activity driven by SmoA1 (SmoA1): resistant to inhibition
- HNF3β and lSL1 marker expression ([4]; 200 μM cyclodextrin, 30 nM ShhN, 48 h): both HNF3μ and lSL1 were expressed
- high-threshold response to ShhN (HNF3β) [4, 7]: blocked
- lSL1 expression (intermediate-threshold response, motor-neuron fate) [4, 7]: substantially uniform expression of lSL1
- differentiation of neural plate explant cells as motor neurons ([4]; 400 μM β-methyl CD in conjunction with 30 nM ShhN): all cells
- cellular response to Shh protein (FIG. 2b) ([4]; cyclodextrin treatment, concentration not given in legend): inhibited the cellular response to Shh protein
- BMP-induced migration of neural-crest cells (neural-crest cells): did not inhibit
- sterol levels after initial transient cyclodextrin treatment, needed to affect pathway response [5]: below 40 μg mg^−1 protein
- developmental malformation of facial and midline structures (chick embryos): variable loss of midline tissues
- developmental malformation of facial and midline structures (chick embryos; listed as Cyclodextrin): variable loss of the frontonasal process and other midline structures; also recorded: holoprosencephaly
- Shh autoprocessing (Shh autoprocessing): no observable effect
- ability to respond to Shh signal (Hh pathway [6]; Dhcr7 and Sc5d mutant MEFs, transient 30-min cyclodextrin, lipid-depleted medium, ShhNp 10 nM): clear deficiencies in their ability to respond to Shh signal
- response to ShhNp stimulation (Hh pathway [6]; cells heterozygous for Dhcr7 and Sc5d mutations, all growth conditions incl. transient cyclodextrin): normal response
- inhibition of Shh signal response (Hh pathway [1]; continuous treatment with 500 μM cyclodextrin): about 50%
- inhibition of Shh signal response (Hh pathway [1]; continuous treatment with 2 mM cyclodextrin): nearly complete inhibition
- response to Shh signaling under chronic cyclodextrin (Hh pathway [1]; cyclodextrin in culture medium for the duration of ShhNp induction, comparable to 5 μM cyclopamine): dose dependent manner; also recorded: inhibited
- Shh signal response, transient cyclodextrin combined with continuous compactin (Hh pathway [1]; transient cyclodextrin before ShhNp induction, then compactin during induction): blocked; also recorded: inhibited
- persistence of Hh pathway inhibition after cyclodextrin treatment (Hh pathway [1]; transient cyclodextrin, sterol depletion maintained with compactin): 72 h
- ShhNp response after transient cyclodextrin alone (Hh pathway [1]; transient treatment for 30 minutes before ShhNp, even at 15 mM cyclodextrin): did not affect response
